Measured values taken from patent US10988449B2, “Isoxazole derivatives as nuclear receptor agonists and uses thereof” (IL DONG PHARMACEUTICAL CO., LTD., priority 2017, dated 2021).
Where a name gives a salt, the structure may show the parent alone.

Molecular target: T1, human FXR (Homo sapiens, UniProt Q96RI1)
T1 construct: expressed in transfected cells
T1 sequence (Q96RI1 1-486): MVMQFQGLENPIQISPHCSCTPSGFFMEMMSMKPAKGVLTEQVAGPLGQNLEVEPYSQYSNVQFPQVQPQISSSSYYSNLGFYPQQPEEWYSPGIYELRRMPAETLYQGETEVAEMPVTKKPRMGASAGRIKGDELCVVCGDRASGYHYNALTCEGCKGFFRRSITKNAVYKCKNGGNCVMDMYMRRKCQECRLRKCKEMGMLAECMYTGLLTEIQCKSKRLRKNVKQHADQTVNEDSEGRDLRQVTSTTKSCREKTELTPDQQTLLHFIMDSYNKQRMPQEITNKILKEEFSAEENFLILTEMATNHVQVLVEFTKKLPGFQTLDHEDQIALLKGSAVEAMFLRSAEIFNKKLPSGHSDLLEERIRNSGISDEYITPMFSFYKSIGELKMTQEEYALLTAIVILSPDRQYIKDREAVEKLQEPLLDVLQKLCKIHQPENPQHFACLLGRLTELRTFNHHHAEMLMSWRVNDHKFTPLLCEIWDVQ
Assay: FXR reporter assay (cellular FXR activities)
Assay type: cell-based
Settings: for EC50: FXR reporter cells, 24 hours incubation, luciferase, read-out: Reporter Cell EC50; for Emax: read-out: Emax (%) (GW4064 Emax = 100%)
Summary of the method: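 EC50 derived from luciferase read-out after 24 h (37 °C, 5% CO2) treatment of human-FXR-expressing reporter cells with serially diluted compound.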

EC50 [µM] | Emax [%] | SMILES
0.06 to 0.2 | 100 | CS(=O)(=O)Nc1cc(C#Cc2ccc(OCc3c(-c4c(Cl)cccc4Cl)noc3C3CC3)cc2Cl)cc(C(=O)O)c1 [Compound I-86, 3-((2-chloro-4-((5-cyclopropyl-3-(2,6-dichlorophenyl)isoxazol-4-yl)methoxy)phenyl)ethynyl)-5-(methylsulfonamido)benzoic acid]
0.2 to 1 | > 100 | O=C(O)c1cccc(C#Cc2ccc(OCc3c(-c4ccccc4C(F)(F)F)noc3C3CC3)cc2Cl)c1 [Compound I-87, 3-((2-chloro-4-((5-cyclopropyl-3-(2-(trifluoromethyl)phenyl)isoxazol-yl)methoxy)phenyl)ethynyl)benzoic acid]
0.2 to 1 | 97 | O=C(O)c1cccc(C#Cc2ccc(OCc3c(-c4ccccc4OC(F)(F)F)noc3C3CC3)cc2Cl)c1 [Compound I-88, 3-((2-chloro-4-((5-cyclopropyl-3-(2-(trifluoromethoxy)phenyl)isoxazol-4-yl)methoxy)phenyl)ethynyl)benzoic acid]
0.2 to 1 | 75 | O=C(O)c1cc(C#Cc2ccc(OCc3c(-c4c(Cl)cccc4Cl)noc3C3CC3)cc2Cl)c2nc[nH]c2c1 [Compound I-90, 4-((2-chloro-4-((5-cyclopropyl-3-(2,6-dichlorophenyl)isoxazol-4-yl)methoxy)phenyl)ethynyl)-1H-benzo[d]imidazole-6-carboxylic acid]
0.02 to 0.06 | 87 | CN(C)CCn1ccc2c(C#Cc3ccc(OCc4c(-c5c(Cl)cccc5Cl)noc4C4CC4)cc3Cl)cc(C(=O)O)cc21 [Compound I-92, 4-((2-chloro-4-((5-cyclopropyl-3-(2,6-dichlorophenyl)isoxazol-4-yl)methoxy)phenyl)ethynyl)-1-(2-(dimethylamino)ethyl)-1H-indole-6-carboxylic acid]
0.2 to 1 | 82 | CC(C)NCCCn1ccc2c(C#Cc3ccc(OCc4c(-c5c(Cl)cccc5Cl)noc4C4CC4)cc3Cl)cc(C(=O)O)cc21 [Compound I-93, 4-((2-chloro-4-((5-cyclopropyl-3-(2,6-dichlorophenyl)isoxazol-4-yl)methoxy)phenyl)ethynyl)-1-(3-(isopropylamino)propyl)-1H-indole-6-carboxylic acid]
0.06 to 0.2 | > 100 | O=C(O)c1cc(C#Cc2ccc(OCc3c(-c4c(Cl)cccc4Cl)noc3C3CC3)cc2Cl)c2ccn(Cc3ccncc3)c2c1 [Compound I-94, 4-((2-chloro-4-((5-cyclopropyl-3-(2,6-dichlorophenyl)isoxazol-4-yl)methoxy)phenyl)ethynyl)-1-(pyridin-4-ylmethyl)-1H-indole-6-carboxylic acid]
0.02 to 0.06 | > 100 | O=C(O)c1cc(C#Cc2ccc(OCc3c(-c4c(Cl)cccc4Cl)noc3C3CC3)cc2Cl)c2ccn(CCN3CCOCC3)c2c1 [Compound I-95, 4-((2-chloro-4-((5-cyclopropyl-3-(2,6-dichlorophenyl)isoxazol-4-yl)methoxy)phenyl)ethynyl)-1-(2-morpholinoethyl)-1H-indole-6-carboxylic acid hydrochloride]
≤ 0.02 | 98 | COC(Cn1ccc2c(C#Cc3ccc(OCc4c(-c5c(Cl)cccc5Cl)noc4C4CC4)cc3Cl)cc(C(=O)O)cc21)OC [Compound I-96, 4-((2-chloro-4-((5-cyclopropyl-3-(2,6-dichlorophenyl)isoxazol-4-yl)methoxy)phenyl)ethynyl)-1-(2,2-dimethoxyethyl)-1H-indole-6-carboxylic acid]
≤ 0.02 | 94 | O=C(O)c1cc(C#Cc2ccc(OCc3c(-c4c(Cl)cccc4Cl)noc3C3CC3)cc2Cl)c2ccn(CCO)c2c1 [Compound I-97, 4-((2-chloro-4-((5-cyclopropyl-3-(2,6-dichlorophenyl)isoxazol-4-yl)methoxy)phenyl)ethynyl)-1-(2-hydroxyethyl)-1H-indole-6-carboxylic acid]
0.02 to 0.06 | > 100 | CC(C)(O)Cn1ccc2c(C#Cc3ccc(OCc4c(-c5c(Cl)cccc5Cl)noc4C4CC4)cc3Cl)cc(C(=O)O)cc21 [Compound I-98, 4-((2-chloro-4-((5-cyclopropyl-3-(2,6-dichlorophenyl)isoxazol-4-yl)methoxy)phenyl)ethynyl)-1-(2-hydroxy-2-methylpropyl)-1H-indole-6-carboxylic acid]
0.06 to 0.2 | > 100 | O=C(O)c1cc(C#Cc2ccc(OCc3c(-c4c(Cl)cccc4Cl)noc3C3CC3)cc2Cl)cc2c1OCC2 [Compound I-100, 5-((2-chloro-4-((5-cyclopropyl-3-(2,6-dichlorophenyl)isoxazol-4-yl)methoxy)phenyl)ethynyl)-2,3-dihydrobenzofuran-7-carboxylic acid]
≤ 0.02 | 97 | O=C(O)c1cc(C#Cc2ccc(OCc3c(-c4c(Cl)cccc4Cl)noc3C3CC3)cc2Cl)cc2[nH]ccc12 [Compound I-101, 6-((2-chloro-4-((5-cyclopropyl-3-(2,6-dichlorophenyl)isoxazol-4-yl)methoxy)phenyl)ethynyl)-1H-indole-4-carboxylic acid]
0.2 to 1 | > 100 | O=C(O)c1cc(C#Cc2ccc(OCc3c(-c4c(Cl)cccc4Cl)noc3C3CC3)cc2Cl)cc2ncoc12 [Compound I-102, 5-((2-chloro-4-((5-cyclopropyl-3-(2,6-dichlorophenyl)isoxazol-4-yl)methoxy)phenyl)ethynyl)benzo[d]oxazole-7-carboxylic acid]
≤ 0.02 | > 100 | Cc1nc2cc(C#Cc3ccc(OCc4c(-c5c(Cl)cccc5Cl)noc4C4CC4)cc3Cl)cc(C(=O)O)c2o1 [Compound I-103, 5-((2-chloro-4-((5-cyclopropyl-3-(2,6-dichlorophenyl)isoxazol-4-yl)methoxy)phenyl)ethynyl)-2-methylbenzo[d]oxazole-7-carboxylic acid]
≤ 0.02 | 94 | CCc1nc2cc(C#Cc3ccc(OCc4c(-c5c(Cl)cccc5Cl)noc4C4CC4)cc3Cl)cc(C(=O)O)c2o1 [Compound I-104, 5-((2-chloro-4-((5-cyclopropyl-3-(2,6-dichlorophenyl)isoxazol-4-yl)methoxy)phenyl)ethynyl)-2-ethylbenzo[d]oxazole-7-carboxylic acid]
≤ 0.02 | > 100 | CCCc1nc2cc(C#Cc3ccc(OCc4c(-c5c(Cl)cccc5Cl)noc4C4CC4)cc3Cl)cc(C(=O)O)c2o1 [Compound I-105, 5-((2-chloro-4-((5-cyclopropyl-3-(2,6-dichlorophenyl)isoxazol-4-yl)methoxy)phenyl)ethynyl)-2-propylbenzo[d]oxazole-7-carboxylic acid]
> 1 | > 100 | O=C(O)c1cc(C#Cc2ccc(OCc3c(-c4c(Cl)cccc4Cl)noc3C3CC3)cc2Cl)cc2nc(CO)oc12 [Compound I-107, 5-((2-chloro-4-((5-cyclopropyl-3-(2,6-dichlorophenyl)isoxazol-4-yl)methoxy)phenyl)ethynyl)-2-(hydroxymethyl)benzo[d]oxazole-7-carboxylic acid]
0.02 to 0.06 | 98 | O=C(O)c1cc(C#Cc2ccc(OCc3c(-c4c(Cl)cccc4Cl)noc3C3CC3)cc2Cl)cc2nccnc12 [Compound I-108, 7-((2-chloro-4-((5-cyclopropyl-3-(2,6-dichlorophenyl)isoxazol-4-yl)methoxy)phenyl)ethynyl)quinoxaline-5-carboxylic acid]
0.02 to 0.06 | 100 | Cc1nc2cc(C#Cc3ccc(OCc4c(-c5c(Cl)cccc5Cl)noc4C4CC4)cc3Cl)cc(C(=O)O)c2nc1C [Compound I-109, 7-((2-chloro-4-((5-cyclopropyl-3-(2,6-dichlorophenyl)isoxazol-4-yl)methoxy)phenyl)ethynyl)-2,3-dimethylquinoxaline-5-carboxylic acid]
≤ 0.02 | 92 | O=C(O)c1cc(C#Cc2ccc(OCc3c(-c4c(Cl)cccc4Cl)noc3C3CC3)cc2Cl)cc2nc(C3CC3)oc12 [Compound I-110, 5-((2-chloro-4-((5-cyclopropyl-3-(2,6-dichlorophenyl)isoxazol-4-yl)methoxy)phenyl)ethynyl)-2-cyclopropylbenzo[d]oxazole-7-carboxylic acid]
0.02 to 0.06 | 98 | CCCCc1nc2cc(C#Cc3ccc(OCc4c(-c5c(Cl)cccc5Cl)noc4C4CC4)cc3Cl)cc(C(=O)O)c2o1 [Compound I-111, 2-butyl-5-((2-chloro-4-((5-cyclopropyl-3-(2,6-dichlorophenyl)isoxazol-4-yl)methoxy)phenyl)ethynyl)benzo[d]oxazole-7-carboxylic acid]
0.02 to 0.06 | 96 | CCc1nc2c(C(=O)O)cc(C#Cc3ccc(OCc4c(-c5c(Cl)cccc5Cl)noc4C4CC4)cc3Cl)cc2o1 [Compound I-113, 6-((2-chloro-4-((5-cyclopropyl-3-(2,6-dichlorophenyl)isoxazol-4-yl)methoxy)phenyl)ethynyl)-2-ethylbenzo[d]oxazole-4-carboxylic acid]
0.02 to 0.06 | > 100 | CCCc1nc2c(C(=O)O)cc(C#Cc3ccc(OCc4c(-c5c(Cl)cccc5Cl)noc4C4CC4)cc3Cl)cc2o1 [Compound I-114, 6 ((2-chloro-((5-cyclopropyl-3-(2,6-dichlorophenyl)isoxazol-4-yl)methoxy)phenyl)ethynyl)-2-propylbenzo[d]oxazole-4-carboxylic acid]
